Series [1] deals with Aedes aegypti LVP (SP-susceptible) strain L3 larvae. Kind of series: Larval mortality-time assay, LVP strain. In kind it is in vivo. The following applies: table row says LC50 LVP dose, text LC90 dose. The text has this: Results represent n=3 biological replicates. Lethal time (LT50) of post topical exposure to a Lethal Concentration (LC90) dose is shown in comparison to SP and the technical grade synthetic pyrethroid, Deltamethrin.

Series [2] has the same test system. The following applies: data from a previous study, cited from earlier work.
For series [3], the system named is Musca domestica CAR21 (insecticide susceptible) strain. As to the kind of experiment: Topical synergist 24-hour mortality assay, CAR21 house flies. Type of series: in vivo. The following applies: for % Dead / Alive / Dead: CAR21, topical doses; for % Dead: 24-hour mortality; for maximum sublethal dose: for both strains (CAR21, KS17); for Alive / Dead: number of flies, pooled of 4 replicates, 24-hour.

For series [4], the system named is Aedes aegypti PRS (SP-resistant) strain L3 larvae. The following applies: data from a previous study, cited from earlier work.
In series [5] the test system is Musca domestica KS17 (insecticide resistant) strain. As to the kind of experiment: Topical synergist 24-hour mortality assay, KS17 house flies. Type of series: in vivo. To be noted: topical doses; for % Dead: 24-hour mortality; for Alive / Dead: number of flies, pooled of 4 replicates, 24-hour.
For series [6], the system named is Aedes aegypti PRS (SP-resistant) strain 3-5 day old adults. As to the kind of experiment: Adult dose-mortality assay, PRS strain. In kind it is in vivo. To be noted: for LC50: Aedes aegypti, PRS adults.
In series [7] the test system is Aedes aegypti PRS (SP-resistant) strain L3 larvae. Kind of series: Qcide combinations larval dose-mortality assay, PRS strain. In kind it is in vivo. As to the method: (§1) Results represent n=3 biological replicates. […] The Synergistic Ratio (SR) and P-value are shown. Mosquito mortality is shown for A and B: LVP at 24 and 48 hours. […] Mosquito mortality is shown for A and B: PRS at 24 and 48 hours.
(§2) Results represent n=3 biological replicates. […] The Synergistic Ratio (SR) and P-value are shown.

For series [8], the system named is Aedes aegypti LVP (SP-susceptible) strain L3 larvae. As to the kind of experiment: Qcide combinations larval dose-mortality assay, LVP strain. In kind it is in vivo. As to the method:
as §1, §2

In series [9] the test system is Aedes aegypti PRS (SP-resistant) strain L3 larvae. As to the kind of experiment: Larval dose-mortality (dose response) assay, PRS strain. The following applies: for LC50: Aedes aegypti, PRS L3 larvae, read-out: Lethal Concentration (LC50). Type of series: in vivo. The text has this:
(§3) Results represent n=3 biological replicates.

For series [10], the system named is Aedes aegypti LVP (SP-susceptible) strain L3 larvae. As to the kind of experiment: Larval dose-mortality (dose response) assay, LVP strain. Type of series: in vivo. To be noted: for LC50: Aedes aegypti, read-out: Lethal Concentration (LC50).
From the text: as §3

Series [11] deals with Aedes aegypti LVP (SP-susceptible) strain 3-5 day old adults. Kind of series: Adult dose-mortality assay, LVP strain. In kind it is in vivo. The following applies: for LC50: Aedes aegypti, read-out: Lethal Dose (LC50).
The mark [12] stands for this setting: 24 h, Permethrin alone (Table 4).
Setting [13] is: 24 h, Permethrin alone (Table 5).
Setting [14] is: 48 h, Permethrin alone (Table 4).
[15] abbreviates: 48 h, Permethrin alone (Table 5).

≈ marks a conversion by molar mass, not a printed value. Where “and” joins values, the source holds several entries; their conditions need not be identical. Equal entries are not always repeated. Where two headings read alike, the source gives them in different places.

Turning to `CC1(C)[C@H](C(=O)O[C@H](C#N)c2cccc(Oc3ccccc3)c2)[C@@H]1C=C(Br)Br` [Deltamethrin], in series [1], the “Lethal Time (LT50)” value is 5.6 h and 5.5 h.
On to `CC(C)C(=O)C1C(=O)C(C)(C)C(=O)C(C)(C)C1=O` [Flavesone, flavesone], for which the “Lethal Concentration (LC50)” value was 41 µg/mL in [2] (24 hours, listed as flavesone); 40.9 µg/mL in [2] (24 hours); 40.5 µg/mL in series [2] (48 hours); 39.7 µg/mL in series [2] (72 hours); 39 µg/mL in series [4] (24 hours, listed as flavesone); 38.7 µg/mL in series [4] (24 hours). In addition, the “Lethal Concentration (LC50)” value in series [4] (48 hours) and in series [4] (72 hours) was 37.1 µg/mL each time. In series [3], the “% Dead” value was 0.0%. In addition, the maximum sublethal dose in series [3] (topical) amounted to 0.3 % v/v. Further, the Alive in [3] was 80. For the same compound, the Dead in series [3] worked out at 0.
Consider `CCCCOCCOCCOCc1cc2c(cc1CCC)OCO2` [PBO, piperonyl butoxide], for which, in series [3], the “% Dead” value is on record as 0.0%, the Alive is reported as 80 and the Dead amounted to 0. In addition, the maximum sublethal dose in series [3] (topical) came out at 10 μg/fly. Moreover, in [5], the “% Dead” value is 3.9%, the Alive is given as 74 and the Dead is 3.
With `CC1(C)C(C=C(Cl)Cl)C1C(=O)OCc1cccc(Oc2ccccc2)c1` (stereo not drawn) [Permethrin, permethrin], the LC50 in [6] (24 hours post exposure, read-out: Lethal Dose (LC50)) is 130 µg/mL (≈ 332 µM); in series [6] (24 hours, read-out: LC50) it was 130 µg/mL (≈ 332 µM); in [6] (48 hours post exposure, read-out: Lethal Dose (LC50)), 120 µg/mL (≈ 307 µM); in series [7] (setting [12]), 2.1 µg/mL; in series [7] (setting [13]), 1.21 µg/mL; in series [7] (setting [14]) it was 1.3 µg/mL. Moreover, the LC50 is 0.87 µg/mL in series [7] (setting [15]); 0.0205 µg/mL in series [8] (setting [12]); 0.0237 µg/mL in series [8] (setting [13]); 0.0181 µg/mL in series [8] (setting [14]); 0.0217 µg/mL in series [8] (setting [15]); 0.7 µg/mL (≈ 1.79 µM) in [9] (24 hours post exposure). Also, the LC50 in series [9] (48 hours post exposure) came out at 0.6 µg/mL (≈ 1.53 µM); in series [9] (72 hours post exposure), 0.6 µg/mL (≈ 1.53 µM); in [10] (24 h, 24 hours post exposure) it was 0.026 µg/mL (≈ 0.0664 µM); in series [10] (48 h, 48 hours post exposure), 0.0252 µg/mL (≈ 0.0644 µM); in [10] (72 h, 72 hours post exposure), 0.0214 µg/mL (≈ 0.0547 µM); in [11] (24 h, 24 hours post exposure) it was 0.543 µg/mL (≈ 1.39 µM). In addition, the LC50 in series [11] (48 h, 48 hours post exposure) is 0.505 µg/mL (≈ 1.29 µM). Besides, the “resistance of PRS strain adults as compared to LVP” value in series [6] (adults, under assay conditions) is given as “approximately 240 fold”. In series [9] (L3 larvae, under assay conditions), the “resistance of PRS strain larvae as compared to LVP strain” value was “approx. 25 fold”. In addition, the “Lethal Time (LT50)” value in [1] is 5.5 h and 5.6 h. In addition, the results for the “% Dead” value in [3] and in series [5] were 7.5% and 3.8%, respectively. Moreover, the LD50 dose in series [3] (CAR21 strain, topical) is listed as 12 ng/fly. Also, the Alive in series [3] is 74; in [5], 77. Moreover, the Dead is listed as 6 in series [3] and 3 in series [5]. Besides, in series [10] (24 hours post exposure), the “Lethal Concentration (LC50)” value amounted to 0.0259 µg/mL. The “Lethal Dose (LC50)” value in series [11] (24 hours post exposure) was 0.5429 µg/mL.

The values are drawn from patent US20260248127A1, “IMPROVED PESTICIDAL COMPOSITIONS AND PEST CONTROL METHODS” (priority 2022, published 2026).
